Test results taken from the supplement of paper PMC11451515.

Legend:
Details in all cases: 48 h
[1] = tested on: NOMO1; assay: cell viability relative to DMSO control; higher = less cytotoxic
Method in brief: (§1)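 Three leukemia lines were tested: NOMO1 and SEM at 500 cells/well and P12-Ichikawa at 1000 cells/well. Each was adapted for at least four passages in each medium and seeded in 5 μl in 1536-well plates, and library compounds in DMSO were pin-dosed from 47 μM to 0.79 nM in 11 threefold steps. After 48 h at 37°C, CellTiter-Glo One luminescence was read. Viability is a percentage relative to DMSO wells on each plate, with cell-free wells as background.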

[2] = tested on: P12-Ichikawa; assay: as above
Method in brief: as §1

[3] = tested on: SEM cells; assay: as above
Method in brief: as §1

[4] = tested on: NOMO1; assay: AUC of viability dose-response curve (% viability x log10 dose units); higher = less sensitive
Method in brief: (§2)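 Seeding of medium-adapted leukemia cells was at 500 or 1000 cells/well in 1536-well plates, followed by 48 h at 37°C with library compounds in DMSO at 11 threefold doses from 47 μM to 0.79 nM. CellTiter-Glo One luminescence was normalised per plate to DMSO and cell-free wells and fitted as a four-parameter log-logistic function of log10 dose. Area under the curve was integrated by trapezoidal rule, with curves exceeding full viability scaled and curves failing quality control removed.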

[5] = tested on: P12-Ichikawa; assay: as above
Method in brief: as §2

[6] = tested on: SEM cells; assay: as above
Method in brief: as §2

CCCOc1ccc2[nH]c(NC(=O)OC)nc2c1
cell viability [%]
Details	[1]	[2]	[3]
HPLM + 10% dialyzed FBS, 0.000781 µM	116	125	106
HPLM + 10% dialyzed FBS, 0.00234 µM	116	122	99.4
HPLM + 10% dialyzed FBS, 0.00702 µM	104	107	97.6
HPLM + 10% dialyzed FBS, 0.0211 µM	102	99.4	82.9
HPLM + 10% dialyzed FBS, 0.0632 µM	76.5	54.5	42.1
HPLM + 10% dialyzed FBS, 0.19 µM	36.9	35.3	25.4
HPLM + 10% dialyzed FBS, 0.569 µM	31.7	17.2	23
HPLM + 10% dialyzed FBS, 1.71 µM	32	21.8	25.8
HPLM + 10% dialyzed FBS, 5.12 µM	50.3	25.3	25.7
HPLM + 10% dialyzed FBS, 15.4 µM	36.6	18.8	24.6
HPLM + 10% dialyzed FBS, 46.1 µM	36.6	23.2	23
RPMI 5 mM glucose + 10% FBS, 0.000781 µM	122	–	95.3
RPMI 5 mM glucose + 10% FBS, 0.00234 µM	116	–	78.3
RPMI 5 mM glucose + 10% FBS, 0.00702 µM	120	–	70
RPMI 5 mM glucose + 10% FBS, 0.0211 µM	121	–	60
RPMI 5 mM glucose + 10% FBS, 0.0632 µM	98.3	–	23.6
RPMI 5 mM glucose + 10% FBS, 0.19 µM	28.6	–	14.1
RPMI 5 mM glucose + 10% FBS, 0.569 µM	21.1	–	13.2
RPMI 5 mM glucose + 10% FBS, 1.71 µM	19.4	–	9.52
RPMI 5 mM glucose + 10% FBS, 5.12 µM	26.7	–	11.6
RPMI 5 mM glucose + 10% FBS, 15.4 µM	22.6	–	12.1
RPMI 5 mM glucose + 10% FBS, 46.1 µM	25.2	–	15.1
RPMI 5 mM glucose + 10% dialyzed FBS, 0.000781 µM	–	–	120
RPMI 5 mM glucose + 10% dialyzed FBS, 0.00234 µM	–	–	123
RPMI 5 mM glucose + 10% dialyzed FBS, 0.00702 µM	–	–	94.4
RPMI 5 mM glucose + 10% dialyzed FBS, 0.0211 µM	–	–	80.2
RPMI 5 mM glucose + 10% dialyzed FBS, 0.0632 µM	–	–	45.2
RPMI 5 mM glucose + 10% dialyzed FBS, 0.19 µM	–	–	20.1
RPMI 5 mM glucose + 10% dialyzed FBS, 0.569 µM	–	–	22.5
RPMI 5 mM glucose + 10% dialyzed FBS, 1.71 µM	–	–	15.3
RPMI 5 mM glucose + 10% dialyzed FBS, 5.12 µM	–	–	17.5
RPMI 5 mM glucose + 10% dialyzed FBS, 15.4 µM	–	–	20.8
RPMI 5 mM glucose + 10% dialyzed FBS, 46.1 µM	–	–	18.7

AUC of viability dose-response curve
Details	[4]	[5]	[6]
HPLM + 10% dialyzed FBS	286	226	240
RPMI 5 mM glucose + 10% FBS	259	217	169
RPMI 5 mM glucose + 10% dialyzed FBS	273	257	199

C/C(=C\c1csc(C)n1)[C@@H]1C[C@@H]2O[C@]2(C)CCC[C@H](C)[C@H](O)[C@@H](C)C(=O)C(C)(C)[C@@H](O)CC(=O)O1
cell viability [%]
Details	[1]	[2]	[3]
HPLM + 10% dialyzed FBS, 0.000781 µM	22.6	33.8	20.1
HPLM + 10% dialyzed FBS, 0.00234 µM	28.6	32.1	19.1
HPLM + 10% dialyzed FBS, 0.00702 µM	32	28.8	23
HPLM + 10% dialyzed FBS, 0.0211 µM	27.8	58.9	36.1
HPLM + 10% dialyzed FBS, 0.0632 µM	29.6	28.1	21
HPLM + 10% dialyzed FBS, 0.19 µM	27.8	22.6	22
HPLM + 10% dialyzed FBS, 0.569 µM	29.6	23.1	19.7
HPLM + 10% dialyzed FBS, 1.71 µM	35	25.3	19.5
HPLM + 10% dialyzed FBS, 5.12 µM	25.2	30.8	18.2
HPLM + 10% dialyzed FBS, 15.4 µM	27.6	17.1	20.3
HPLM + 10% dialyzed FBS, 46.1 µM	31.3	21.4	19.9
RPMI 5 mM glucose + 10% FBS, 0.000781 µM	14.1	18.2	11.4
RPMI 5 mM glucose + 10% FBS, 0.00234 µM	18.3	19.1	15.3
RPMI 5 mM glucose + 10% FBS, 0.00702 µM	20.6	23.7	17.3
RPMI 5 mM glucose + 10% FBS, 0.0211 µM	18.3	44.1	19.1
RPMI 5 mM glucose + 10% FBS, 0.0632 µM	20.3	24.6	16.8
RPMI 5 mM glucose + 10% FBS, 0.19 µM	15.9	22.6	17.3
RPMI 5 mM glucose + 10% FBS, 0.569 µM	16.8	24.3	15.8
RPMI 5 mM glucose + 10% FBS, 1.71 µM	19.2	22.7	14.1
RPMI 5 mM glucose + 10% FBS, 5.12 µM	15.3	25.6	13.1
RPMI 5 mM glucose + 10% FBS, 15.4 µM	14.5	24.2	14.9
RPMI 5 mM glucose + 10% FBS, 46.1 µM	14.9	27	16.9
RPMI 5 mM glucose + 10% dialyzed FBS, 0.000781 µM	18.1	44.5	20.7
RPMI 5 mM glucose + 10% dialyzed FBS, 0.00234 µM	22.2	34.4	18.4
RPMI 5 mM glucose + 10% dialyzed FBS, 0.00702 µM	22.9	31.2	14
RPMI 5 mM glucose + 10% dialyzed FBS, 0.0211 µM	39.2	58	50.3
RPMI 5 mM glucose + 10% dialyzed FBS, 0.0632 µM	23.9	37.6	20.6
RPMI 5 mM glucose + 10% dialyzed FBS, 0.19 µM	24.5	35.4	16.9
RPMI 5 mM glucose + 10% dialyzed FBS, 0.569 µM	21.8	32.6	14.3
RPMI 5 mM glucose + 10% dialyzed FBS, 1.71 µM	21.4	32.8	16.2
RPMI 5 mM glucose + 10% dialyzed FBS, 5.12 µM	21.9	43.7	16.6
RPMI 5 mM glucose + 10% dialyzed FBS, 15.4 µM	25	35.5	16.3
RPMI 5 mM glucose + 10% dialyzed FBS, 46.1 µM	20	38	15.6

AUC of viability dose-response curve
Details	[4]	[5]	[6]
HPLM + 10% dialyzed FBS	138	139	104
RPMI 5 mM glucose + 10% FBS	82	120	74.6
RPMI 5 mM glucose + 10% dialyzed FBS	114	184	95.4
